The values below come from article PMC3131257, “Hypericum lanceolatum (Hypericaceae) as a potential source of new anti-malarial agents: a bioassay-guided fractionation of the stem bark” (Malaria Journal, 2011).

The test system of one data set is K1. Conditions: against K1; cited from earlier work.
The subject of data set [1] is multidrug-resistant W2mef strain of P. falciparum. As to the kind of experiment: microbe, parasite or virus in culture. Format: cell-based, Plasmodium falciparum. The protocol:
(§1) The W2mef (MRA-615) strain was ordered from the Malaria Research and Reference Reagent Resource Centre (MR4, Manassas, VA, USA), and maintained in continuous culture. The SHF4 field isolate previously isolated from a malaria patient in Buea in the South West region of Cameroon, had been stored in liquid nitrogen at the Biotechnology Unit, University of Buea.
(§2) The field isolate and the laboratory strain of P. falciparum were grown and maintained in culture using the method of Trager and Jensen with some modification. All the chemicals except Albumax II (Gibco; Invitrogen, USA), were ordered from Sigma-Aldrich Inc (Germany). Cultures consisted of a 4% haematocrit suspension of O+ human erythrocytes in RPMI 1640 medium supplemented with a gentamicin solution at 0.01 mg/mL, 25 mM HEPES buffer, 25 mM NaHCO3, and 1% Albumax II. Cultures were fed with a gas mixture consisting of 5% CO2 and incubated at 37°C (CO2 incubator Heraeus, Hera cell 150; USA). The estimation of the parasitaemia as well as parasite visualization before incubation was done using both fluorescence (Acridine Orange) and normal light (Giemsa stain) microscopes.
(§3) The drug sensitivity assay was carried out in 96-well microtitration plates as described by Desjardins et al with some modifications. All stock solutions were sterilized by passing them through a 0.2 μm syringe filter and stored at -20°C until required. Similarly, a 2 μg/mL stock solution of quinine dihydrochloride (Rotexmedica, Trittau, Germany) was prepared and used as positive control. The parasitaemia was measured using the parasite lactate dehydrogenase (pLDH) assay.
(§4) The pLDH assay generates optical density (OD) values at various concentrations of the drug as raw data. OD values from control wells represent the maximum amount of pLDH produced by parasites and OD values from blank wells (containing a 4% suspension of non parasitized red blood cells in malaria culture medium) represented background pLDH activity. A 100% growth value, which corresponds to maximum LDH activity, was obtained by subtracting the mean OD value of blank wells from that of control wells. Likewise, the growth value at each concentration of the drug was obtained by adjusting OD values from drug-treated wells for background pLDH activity (parasite-free red blood cells). These values were then expressed as a percentage of the maximal growth value and plotted against corresponding concentrations of the drug using the software HN-NonLin V1.1 [14] to generate log dose-response curves from which the 50%, 90%, 95% and 99% Inhibitory Concentrations (IC50, IC90, IC95 and IC99 respectively) were obtained. Each product was tested in triplicate in each of the two separate experiments, giving a total of six repeats per product and per concentration tested. The IC50 values obtained from these replicates were pooled and expressed as geometric mean IC50 values and the different means compared among themselves by independent samples t-test using SPSS Statistics 17.0 (Chicago, USA).

Data set [2] concerns CQ-sensitive T9-96 P. falciparum. Particulars: betulinic acid from Uapaca nitida root bark; cited from earlier work.
Data set [3] has as its system CQ-resistant K1 P. falciparum. Particulars: betulinic acid from Uapaca nitida root bark; cited from earlier work.
Data set [4] relates to W2 strain of P. falciparum. Also on record: method as in PMID 18239315. Conditions: betulinic acid from Psorospermum glaberrimum; cited from earlier work.
The subject of data set [5] is LLC-MK2 monkey kidney epithelial cells. The experiment in a line: cytotoxicity on LLC-MK2 monkey kidney epithelial cells. Conditions: pure compounds; five days incubation. As for the experimental part:
(§5) The cytotoxicity profiles of the extracts and pure compounds were estimated against LLC-MK2 monkey kidney epithelial cells according to the procedure previously described with some modifications. Cells were cultured under the same conditions as P. falciparum. Cells were distributed in 96-well plates at 20,000 cells per well in 100 μL culture medium, and allowed to attach and become confluent, for 24h. The medium was then removed completely the next day and 100 μL of fresh medium was added to all the wells, followed by 100 μL of crude extract (1000 μg/mL) or pure compounds (200 μg/mL) added in triplicate in row H. A two folds serial dilution was made upward to obtain concentration range of 250 - 3.90 μg/ml (crude extract) or 50 - 0.78 μg/ml (pure compounds), cells at row A serving as control without drug. The plates were incubated for five days at 37°C in 5% CO2 in air. Cells concentration and viability in the presence of extracts or pure compounds were compared with that of control cultures without extracts.

Data set [6] relates to field isolate (SHF4) of Plasmodium falciparum. The experiment in a line: anti-plasmodial drug sensitivity assay, pLDH method, SHF4 field isolate. Conditions: for IC50: Plasmodium falciparum, pure compounds, pLDH assay. Format: cell-based. As for the experimental part: as §1, §2, §3, §4
The subject of a further data set is neural cells. Particulars: in vitro; cited from earlier work.
A short description of data set [7]: cytotoxicity on LLC-MK2 monkey kidney epithelial cells. Conditions: monkey, LLC-MK2 monkey kidney epithelial cells, CC50 on LLC-MK2, pure compounds; five days incubation. The protocol: as §5
The test system of a further data set is P. falciparum. Also on record: method as in PMID 9581528. Particulars: growth of P. falciparum; cited from earlier work.
Setting [8] is: Plasmodium falciparum, read-out: IC50 on W2mef, pure compounds, pLDH assay.
The mark [9] stands for this setting: Plasmodium falciparum, read-out: IC50 on W2mef, pure compounds, values expressed in μg/mL (Table 2 footnote *, text b34).
Setting [10] is: read-out: IC50 on W2mef, pure compounds, pLDH assay.

Converted amounts (≈) assume the structure as drawn. Where a name gives a salt, the structure may show the parent alone. Read-outs that look alike come from different tables or passages of the source.

What is called IC50 is the point on the concentration scale where inhibition reaches its midpoint. Turning to 6-hydroxyluteolin-7-O-(1^2-a-rhamnoside, the IC50 in the data set with K1 was 2.13 µg/mL.
As to `C=C(C)[C@@H]1CC[C@]2(C(=O)O)CC[C@]3(C)[C@H](CC[C@@H]4[C@@]5(C)CC[C@H](O)C(C)(C)[C@@H]5CC[C@]43C)[C@@H]12` [HLT1, 3-hydroxy-lup-20(29)-en-28-oic acid], the IC50 in data set [1] (setting [8]) is below 5 µM; in [1] (setting [9]), below 5 µg/mL; in [1] (setting [10]) it was 4.5 ± 1.35 µM; in data set [2], 25.9 µg/mL (≈ 56.7 µM); in [3], 19.6 µg/mL (≈ 42.9 µM); in [4], 5.1 µM. Moreover, it took 5.6 ± 0.13 µM to reach half-maximal inhibition in data set [6] (IC50). In addition, in [5], the “CC50 on LLC-MK2” value was 25.00 ± 0.00 µg/mL (≈ 54.7 µM). In the data set on neural cells, the “cytotoxic activity against neural cells (in words)” value is reported as “no significant cytotoxic activity”.
For orientation: CC50 means the concentration giving 50% cytotoxicity. In the case of `O=C(c1cc(O)ccc1O)c1c(O)cccc1O` [HLT2, 2,2',5,6'-tetrahydroxybenzophenone], the IC50 in data set [1] (setting [8]) was 55.1 ± 0.93 µM; in [6], 13.4 ± 0.16 µM. Further, in data set [7], the CC50 at 5 days was above 100 µg/mL.
`COc1ccc2c(=O)c3cccc(O)c3oc2c1` [HLT3, 5-hydroxy-3-methoxyxanthone]: the IC50 in data set [1] (setting [8]) is below 5 µM; in [1] (setting [9]), below 5 µg/mL; in data set [1] (setting [10]), 3.26 ± 0.08 µM; in data set [6], 1.43 ± 0.48 µM. For the same compound, the CC50 at 5 days in [7] was above 100 µg/mL.
Consider `COc1cccc2c(=O)c3ccc(O)cc3oc12` [HLT4, 3-hydroxy-5-methoxyxanthone], for which the results for the IC50 in data set [1] (setting [8]) and in data set [6] were 33.84 ± 0.2 µM and 34.09 ± 0.12 µM, respectively. In addition, the “anti-plasmodial activity (in words)” value in data set [1] (against W2mef) and in data set [6] (against the field isolate) was “inactive” each time. For the same compound, in [5], the “CC50 on LLC-MK2” value came out at 12.50 ± 0.00 µg/mL (≈ 51.6 µM). Further, the CC50 at 5 days in data set [7] was 10 to 30 µg/mL (≈ 41.3 to 124 µM).
In the case of `C=C[C@H]1C[N@@]2CC[C@H]1C[C@H]2[C@H](O)c1ccnc2ccc(OC)cc12` [QN, quinine dihydrochloride, reference compound], the IC50 was found to be 0.27 ± 0.04 µM in data set [1] (setting [8]); 0.27 ± 0.04 µg/mL in [1] (Plasmodium falciparum, read-out: IC50 on W2mef, sub-extracts and fractions, pLDH assay); 0.14 ± 0.05 µM in [6].
Turning to garciniaxanthone, the half-maximal inhibitory concentration (IC50) in the data set with P. falciparum was 0.96 µg/mL.
